Article PMC8201479, “Trisubstituted Pyrrolinones as Small-Molecule Inhibitors Disrupting the Protein–RNA Interaction of LIN28 and Let-7” (ACS Medicinal Chemistry Letters, 2021)

Biological target: T1, LIN28–let-7 complex (Homo sapiens, UniProt Q9H9Z2)
T1 construct: Purified LIN28A (residues 16–187) was incubated at a concentration of 200 nM; His-tag (cleaved yes); made in house; host or cells: Escherichia coli BL21(DE3)
T1 sequence (Q9H9Z2 16-187): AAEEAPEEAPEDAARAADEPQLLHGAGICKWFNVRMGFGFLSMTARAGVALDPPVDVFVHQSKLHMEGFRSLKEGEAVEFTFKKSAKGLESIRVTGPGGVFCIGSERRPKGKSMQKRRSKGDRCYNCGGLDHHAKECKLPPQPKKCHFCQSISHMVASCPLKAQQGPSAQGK
Test: Electrophoretic mobility shift assay (EMSA)
Type: binding
Method: was detected after incubation at room temperature using a TECAN Spark plate reader. Half maximal
inhibitory concentrations (IC50) were determined using GraphPad Prism 7.
Compound screening. High throughput screening was performed in low volume 384 well plates
(Corning 4514) with 30 µM compound, 40 nM LIN28A, and 2 nM preE-let-7f-1-FAM in FP assay
buffer. Compounds were transferred with an ECHO 520 liquid handler and protein and RNA were
added with a multidrop dispenser. Protein and RNA were added stepwise with a 30 min incubation
period in between. FP was detected after a final incubation of 15 min with an Envision plate reader
and fluorescence was measured with a Paradigm plate reader. A reaction without LIN28 served as a
negative control and one without compound was used as a positive control. The software Quattro
Workflow (Quattro Research GmbH) was used for the analysis of screening data.
Electrophoretic mobility shift assay. EMSA was used as a secondary assay to validate FP-assay hit
molecules. Purified LIN28A (residues 16–187) was incubated with compound and 5 U recombinant
ribonuclease inhibitor (Takara Bio) in EMSA reaction buffer (50 mM Tris (pH 7.5), 100 mM NaCl,
10 mM β-mercaptoethanol, 50 µM ZnCl2, 2 % DMSO, 0.01 % Tween 20, 12 % glycerol) for 2 hours
at room temperature. Subsequently, preE-let-7f-1-Cy3 (mus musculus) (GGGGUAGUGAUUUUAC
CCUGUUUAGGAGAU-Cy3, purchased from IDT) was added to a final concentration of 5 nM and
a reaction volume of 50 µL. The final concentration of LIN28A was 10 nM and compound
concentrations up to 75 µM were used. The reaction mixtures were incubated for a further 15 minutes
and 10 µL loading dye (40 % glycerol, 1.5x TAE) was added. 10 µL of each reaction was separated
in an 8 % polyacrylamide TAE gel at 4 °C and 220 V for 1 h using 0.25x TAE as running buffer. Cy3
fluorescence was detected with a ChemiDoc M P (Bio-Rad) and 2 minutes of exposure time.
Thermal shift assay. Thermal stability of the cold shock domain construct LIN28 A (residues 16–
126) with and without compound was monitored using a NanoTemper Prometheus NT.48 nano -

inhibition of the LIN28–let-7 complex in EMSA (compound concentrations up to 75 µM): dose-dependent micromolar inhibition
IC50 (relative fluorescence intensity of let-7f divided by that of LIN28–let-7f complex plus let-7f): 38 µM
SMILES: O=C(C1=C(O)C(=O)N(c2ccc(O)c(C(=O)O)c2)C1c1ccc(-c2nccs2)cc1)c1ccc(Br)cc1 (centres unmarked) [C902/PH-31]
